Laboratory results reported in patent US12390537B2, “Compositions of polymeric microdevices and methods of use thereof in cancer immunotherapy” (Massachusetts Institute of Technology, priority 2020, dated 2025).

Legend:
[1] = system: apoptotic cells in B16F10 tumors; assay: TUNEL staining of tumor sections; type: in vivo, mice; conditions: cGAMP-MPs single injection, cGAMP-S three injections
Description: Tumor sections (5 μm) were fixed with 4% paraformaldehyde, blocked with 3% bovine serum albumin, and permeabilized with 0.1% Triton X-100 in PBS. The tumor sections were then incubated with anti-CD8 alpha antibody (1:200, Abcam, cat. no. ab217344) at 4° C. overnight and goat anti-rabbit IgG H&L (Alexa Fluor® 488) (1:1000, Abcam, cat. no. ab150077) secondary antibody at room temperature for 1 h. Apoptotic tumor cells were stained using a in situ cell death detection kit (Roche) according to the manufacturer's instructions. Images were acquired on a Nikon A1R Ultra-Fast Spectral Scanning Confocal Microscope (Shinagawa, Tokyo).

[2] = system: 4T1 lung metastasis; assay: Treatment of metastatic 4T1 model; type: in vivo, mice; conditions: day 34
Description: 2×10^5 4 T1 cells were injected into the mammary fat pad. Seven days after injection, tumor-bearing mice were divided into 3 experimental groups: untreated, 3×cGAMP-S, and 1×cGAMP-S plus cGAMP-MPs (10m of cGAMP-S, 5 PLGA-1 microdevices containing 10 μg of cGAMP, and 5 PLGA-2 microdevices containing 10 μg of cGAMP). The primary tumor was surgically removed at day 18 to extend survival. Mice were euthanized at day 34. Lung tissues were stained with India ink and fixed in Fekete's solution. Metastatic foci on the lung were counted under a microscope. Unstained lung tissues were fixed in formalin and stained by H&E. Quantitation of metastatic tumor cells of H&E stained sections was performed using an Aperio ImageScope using tuned positive pixel count algorithm. Briefly, input hue value in the positive pixel count algorithm was tuned to positively select normal lung tissues in red to orange range, while the tumors were negatively selected in purple. Percentage area of tumor metastasis per total lung area was calculated by the number of negative counts (purple)/the number of total counts (purple, orange, and red)×100%. Three H&E sections per lung at different depths were analyzed and averaged to obtain the percentage of tumor over the lung for one mouse. Four or five mice were analyzed for each group.

[3] = system: IRF7 mRNA; assay: qPCR of interferon-stimulated genes in B16F10 tumors; type: in vivo, mice; conditions: tumors at day 16; cGAMP-MPs single injection, cGAMP-S three injections
Description: (§1) Mice bearing B16F10 tumors were treated with the following 4 experimental groups (n=8): untreated, 1×EPs, 3×cGAMP-S, and 1×cGAMP-S plus cGAMP-MPs, respectively (FIG. 4A). Tumors were collected at day 16 post tumor inoculation and cut into 50-100 mg small pieces in a 1.5 mL microcentrifuge tube. The tumors were lysed in radioimmunoprecipitation assay (RIPA) buffer (Sigma-Aldrich), homogenized, and centrifuged at 20130 rcf for 10 min. The protein content in the supernatant was quantified using a bicinchoninic acid protein assay kit (Thermo Fisher Scientific, MA, USA). Equal amounts of proteins (20 μg) were separated on a 4 to 15% gradient SDS-polyacrylamide gel (Bio-Rad, Hercules, CA) and electro-transferred to nitrocellulose membrane. The membranes were then blocked with 5% milk in tris-buffered saline supplemented with 0.05% Tween 20 and further incubated with GAPDH monoclonal antibody (Invitrogen, CA, cat. no. MA5-27912), phospho-TBK1/NAK (Ser172) (D52C2) Rabbit mAb (Cell Signaling Technology, cat. no. 5483S), or phospho-IRF-3 (S396) Rabbit mAb (Cell Signaling Technology, cat. no. 4947S) at 4° C. overnight. […]
(§2) For q-PCR experiments, total RNAs were extracted from tumors by RNeasy Kit (Qiagen, Inc.) according to manufacturer's protocol. […] Samples were analyzed in triplicates.

[4] = system: CXCL10 mRNA; assay: as above; type: in vivo, mice; conditions: tumors at day 16; cGAMP-MPs single injection, cGAMP-S three injections
Description: as §1, §2

[5] = system: interleukin-6 (IL-6); assay: Systemic IL-6 response of orthotopic 4T1 tumor-bearing mice; type: in vivo; conditions: day 1 to 7; cGAMP-MPs single injection, cGAMP-S four injections

## Nc1nc2c(ncn2[C@@H]2O[C@@H]3COP(=O)(O)O[C@H]4[C@@H](O)[C@H](n5cnc6c(N)ncnc65)O[C@@H]4COP(=O)(O)O[C@H]3[C@H]2O)c(=O)[nH]1 [cGAMP-S, 3′3′-cGAMP]
[1]
  apoptotic cells (TUNEL): greater abundance of apoptotic cells
[2]; cGAMP-MPs single injection day 7, cGAMP-S days 7, 11, 15
  number of metastatic foci on lung surfaces: significantly decreased
[2]; compared to untreated
  relative area of tumors in the lungs: reduced
[3]
  IRF7 mRNA level, fold over untreated: 66.5 fold
[4]
  CXCL10 mRNA level, fold over untreated: 7.2 fold
[5]
  systemic IL-6 levels: elevated
